# Source: ChEMBL document CHEMBL1144330, “Novel pyrazinone mono-amides as potent and reversible caspase-3 inhibitors” (Bioorg Med Chem Lett, 2005)
# Columns and labels:
# Caspase-1 = molecular target: T1, Caspase-1 (Homo sapiens, UniProt P29466); assay: Inhibitory concentration against recombinant human caspase-1 in neuronal precursor (NT2) cells
# T1 sequence (P29466 whole entry): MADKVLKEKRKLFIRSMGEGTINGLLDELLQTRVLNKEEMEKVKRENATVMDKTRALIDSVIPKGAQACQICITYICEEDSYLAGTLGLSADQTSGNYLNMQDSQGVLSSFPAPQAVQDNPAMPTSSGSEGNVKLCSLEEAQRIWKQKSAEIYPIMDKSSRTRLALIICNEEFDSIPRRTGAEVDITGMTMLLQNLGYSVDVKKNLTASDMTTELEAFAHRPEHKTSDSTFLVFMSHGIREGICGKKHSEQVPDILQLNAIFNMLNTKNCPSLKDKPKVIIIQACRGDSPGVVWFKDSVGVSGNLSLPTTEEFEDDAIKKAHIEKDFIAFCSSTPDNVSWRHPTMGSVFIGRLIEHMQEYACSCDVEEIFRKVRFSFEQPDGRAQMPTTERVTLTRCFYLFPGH
# Caspase-3 = molecular target: T2, Caspase-3 (Homo sapiens, UniProt P42574); assay: Inhibitory concentration against recombinant human caspase-3 in neuronal precursor (NT2) cells
# T2 sequence (P42574 whole entry): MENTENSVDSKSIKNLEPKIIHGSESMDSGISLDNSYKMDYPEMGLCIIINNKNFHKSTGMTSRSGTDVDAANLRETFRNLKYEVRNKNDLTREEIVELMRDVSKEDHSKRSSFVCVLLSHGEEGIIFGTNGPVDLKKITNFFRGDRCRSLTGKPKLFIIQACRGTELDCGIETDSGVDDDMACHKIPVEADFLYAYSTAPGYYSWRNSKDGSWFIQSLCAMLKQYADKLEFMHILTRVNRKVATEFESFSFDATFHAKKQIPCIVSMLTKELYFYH
# Caspase-7 = molecular target: T3, Caspase-7 (Homo sapiens, UniProt P55210); assay: Inhibitory concentration against recombinant human caspase-7 […]
# T3 sequence (P55210 whole entry): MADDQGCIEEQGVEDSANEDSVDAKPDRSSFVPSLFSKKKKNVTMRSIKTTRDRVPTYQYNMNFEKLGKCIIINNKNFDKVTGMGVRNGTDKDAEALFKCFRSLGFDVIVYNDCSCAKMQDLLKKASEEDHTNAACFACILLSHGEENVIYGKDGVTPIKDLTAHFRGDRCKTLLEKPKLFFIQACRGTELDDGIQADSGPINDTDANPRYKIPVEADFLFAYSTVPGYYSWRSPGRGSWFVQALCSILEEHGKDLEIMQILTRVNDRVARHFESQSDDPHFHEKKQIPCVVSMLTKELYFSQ
# Caspase-8 = Caspase-8 (Homo sapiens, UniProt Q14790); assay: Inhibitory concentration against recombinant human caspase-8 […]
# Caspase-8, sequence (Q14790 217-374 limits assumed): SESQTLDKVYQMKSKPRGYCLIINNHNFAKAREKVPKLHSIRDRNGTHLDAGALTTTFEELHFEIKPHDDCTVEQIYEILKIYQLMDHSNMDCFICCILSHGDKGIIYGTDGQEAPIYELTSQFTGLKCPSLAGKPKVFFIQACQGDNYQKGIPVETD
# Caspase-8, sequence (Q14790 385-479 limits assumed): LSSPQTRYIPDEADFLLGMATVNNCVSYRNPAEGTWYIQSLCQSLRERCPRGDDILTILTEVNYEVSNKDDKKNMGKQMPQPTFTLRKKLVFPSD
# NT2 = assay: Inhibitory concentration against camptothecin induced apoptosis in neuronal precursor (NT2) whole cells; type: functional, cell-based; conditions: Homo sapiens
IC50 (Caspase-1) [nM],IC50 (Caspase-3) [nM],IC50 (Caspase-7) [nM],IC50 (Caspase-8) [nM],IC50 (NT2) [nM],SMILES
56,26,540,> 10000,1530,CCC(C(=O)N[C@@H](CC(=O)O)C(=O)CNCN(C)CC)n1ccnc(NCc2nonc2C)c1=O (stereo not given in full)
110,0.1,36,5950,2.7,CCCCCN(C)CNCC(=O)[C@H](CC(=O)O)NC(=O)C(CC)n1cc(C(C)(C)C)nc(NCc2nonc2C)c1=O (stereo not given in full)
1080,72,> 10000,7560,8060,CCC(C(=O)N[C@@H](CC(=O)O)C(=O)CSCc1ccccc1)n1ccnc(NCc2noc(C)n2)c1=O (stereo not given in full)
1930,18,9710,> 10000,5740,CCC(C(=O)N[C@@H](CC(=O)O)C(=O)CSCc1ccccc1)n1ccnc(NCCn2cncn2)c1=O (stereo not given in full)
67,6,42,6480,21,CCCCCCN(C)CNCC(=O)[C@H](CC(=O)O)NC(=O)C(CC)n1cc(C(C)(C)C)nc(NCc2nonc2C)c1=O (stereo not given in full)
400,46,5170,2900,8560,CCC(C(=O)N[C@@H](CC(=O)O)C(=O)CSCc1ccccc1)n1ccnc(NCc2ccon2)c1=O (stereo not given in full)
230,51,2540,3300,6410,CCC(C(=O)N[C@@H](CC(=O)O)C(=O)CSCc1ccccc1)n1ccnc(NCc2cc(C)no2)c1=O (stereo not given in full)
1750,100,1010,> 10000,3990,CCOCN(C)CNCC(=O)[C@H](CC(=O)O)NC(=O)C(CC)n1ccnc(NCc2nonc2C)c1=O (stereo not given in full)
190,12,490,6590,3420,CCC(C(=O)N[C@@H](CC(=O)O)C(=O)CSCc1ccccc1)n1ccnc(NCc2cncs2)c1=O (stereo not given in full)
220,88,2420,2730,37900,CCC(C(=O)N[C@@H](CC(=O)O)C(=O)CSCc1ccccc1)n1ccnc(Nc2ccc3sc(C)nc3c2)c1=O (stereo not given in full)
8.7,14,130,4290,1520,CCC(C(=O)N[C@@H](CC(=O)O)C(=O)CNCN1Cc2ccccc2C1)n1ccnc(NCc2nonc2C)c1=O (stereo not given in full)
